Laboratory results: patent publication US7524927B2, “Compositions, method and kits relating to deletion mutations of immunodeficiency virus gp120 hypervariable regions” (priority 2003, dated 2009)
Like-named read-outs stand apart in the source and are kept apart here.

Tests used:
ΔV3(6,6) virus = settings: SupT1 cells
From the text: (§1) Each virus was innoculated onto SupT1 cells in the presence of varying concentrations of AMD3100 (0, 10, 100, 1,000, and 10,000 nm as indicated).
(§2) This bicyclam specifically blocks CXCR4 function and its ability to serve as a receptor for X4 Envs by binding to two Asp residues at the base of the CXCR4 second and […] extracellular loops.

VCP Env pseudotype = settings: U87/CD4/CXCR4 target cells
Description: (§3) FIG. 9B is a diagram depicting AMD3100 sensitivity for viral pseudotypes containing the indicated Envs as indicated, i.e., VCP, V3(6,6); V1/V2, and V3(6,6). Sensitivity to AMD3100 was assessed using U87/CD4/CXCR4 target cells. Two different Env clones comprising deletion of V3(6,6) in combination with deletion of V1/V2 are depicted.

V3(6,6) Env pseudotype = settings: U87/CD4/CXCR4 target cells
Description: as §3

[1] = test system: V3(6,6); V1/V2 Env pseudotypes; settings: U87/CD4/CXCR4 target cells; two Env clones
Description: as §3

[2] = test system: HIV-2/VCP virus (wildtype VCP); experiment: microbe, parasite or virus in culture
From the text: as §1, §2

ΔV1/V2; ΔV3(6,6) virus = settings: SupT1 cells
From the text: as §2

CXCR4 = target: T1, CXCR4 (Homo sapiens, UniProt P61073); format: binding
T1 construct: expressed in transfected cells
T1 sequence (P61073 whole entry): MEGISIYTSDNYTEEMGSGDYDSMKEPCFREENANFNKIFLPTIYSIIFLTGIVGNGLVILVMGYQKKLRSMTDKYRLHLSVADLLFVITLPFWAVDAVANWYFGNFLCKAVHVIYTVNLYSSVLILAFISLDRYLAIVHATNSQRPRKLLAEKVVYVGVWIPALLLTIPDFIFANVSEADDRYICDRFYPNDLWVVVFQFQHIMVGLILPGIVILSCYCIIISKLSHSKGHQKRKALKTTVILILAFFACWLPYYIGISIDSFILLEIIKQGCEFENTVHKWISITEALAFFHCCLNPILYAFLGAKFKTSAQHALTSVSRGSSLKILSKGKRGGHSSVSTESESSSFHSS
Description: Western blot binding assay. […] In this assay, the gp120 of interest is added to cells expressing the desired coreceptor either in the absence or presence of sCD4. After binding for 30 min, the cells are washed, lysed, and bound gp120 detected by western blot.

| Molecule | Resistance of virus to AMD3100 (ΔV3(6,6) virus; adapted (p16) virus, up to 10,000 nm AMD3100) | AMD3100 concentration at which virus could not be blocked (ΔV3(6,6) virus; ΔV3(6,6) virus) | AMD3100 sensitivity of pseudotype (VCP Env pseudotype) | AMD3100 sensitivity of pseudotype (V3(6,6) Env pseudotype) | AMD3100 sensitivity of pseudotype [1] | Sensitivity of virus to AMD3100 ([2]; 0, 10, 100, 1,000, and 10,000 nm AMD3100, SupT1 cells) | IC50 ([2]; Human immunodeficiency virus 2, SUP-T1, read-out: IC50 for inhibition of infection of SupT1 cells) [nM] | AMD3100 concentration at which virus could not be blocked (ΔV1/V2; ΔV3(6,6) virus) | Inhibition of VCP gp120 binding to CXCR4-expressing cells (CXCR4) | Inhibition of VCP gp120 binding to CXCR4-expressing cells (CXCR4; VCP gp120) |
| --- | --- | --- | --- | --- | --- | --- | --- | --- | --- | --- |
| c1cc(CN2CCCNCCNCCCNCC2)ccc1CN1CCCNCCNCCCNCC1 [AMD3100] | completely resistant | greater than 10,000 nM | sensitivity | complete resistance | complete resistance | sensitive | ~50 | greater than 10,000 nM | inhibitable |  |
| SDF-1: natural chemokine ligand of CXCR4 [reference compound] |  |  |  |  |  |  |  |  |  | inhibitable |
